Counter-ions that a name gives are not always drawn. The source made the active and inactive calls.
Columns and labels:
[1] = blockers of HIV-1 envelope-mediated cell-cell fusion – cherry-pick, dose response (AID 652057); type: functional, cell-based
[2] = off-target signal loss in HeLa-CEM21 co-culture – HeLa F-luc CTL cells, cherry-picked, counter-screen for HIV-1 Env fusion inhibitor project, dose response (AID 652040); type: functional, cell-based;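 further: potency for signal decrease marking cytotoxic or nonspecific inhibition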
[3] = HIV-1 AD8 envelope cell-cell fusion blockers – cherry-pick, dose response (AID 652062); type: functional, cell-based;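 further: luciferase signal from cell-cell fusion driven by HIV-1 clade B AD8 Env; potency is for inhibitors of fusion seen as a drop in luminescence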
[4] = blockers of HIV-1 ZM109 envelope-driven cell-cell fusion – HeLa effector, CEM target cells, luciferase, cherry-pick, dose response (AID 652058); type: functional, cell-based;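 further: luciferase signal from HIV-1 Env mediated cell-cell fusion of effector and target cells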
[5] = test system: HEK293; experiment: EBV LMP1 TES2 canonical NF-kB signalling blockers – cell-based, HEK293, luciferase, cherry-pick, dose response (AID 588343); type: functional; settings: Homo sapiens
[6] = test system: Vero; experiment: viability loss in Vero cells – cell-based, plate reader, cherry-pick samples, cytotoxicity control, dose response (AID 687020); type: functional; settings: Chlorocebus sabaeus
[7] = Trypanosoma cruzi growth suppression in host cells – NIH3T3 host cells, beta-gal luminescence, confirmation (AID 2044); type: functional, cell-based;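 further: intracellular parasites grown in NIH/3T3 mouse fibroblasts as host cells; luminescent beta-galactosidase reporter signal from transgenic T. cruzi replicating inside host cells; inhibitors lower the luminescence signal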
[8] = target: T1, Low molecular weight phosphotyrosine protein phosphatase (Homo sapiens, UniProt P24666); type: functional; settings: read-out: IC50_Mean
T1 sequence (P24666 whole entry): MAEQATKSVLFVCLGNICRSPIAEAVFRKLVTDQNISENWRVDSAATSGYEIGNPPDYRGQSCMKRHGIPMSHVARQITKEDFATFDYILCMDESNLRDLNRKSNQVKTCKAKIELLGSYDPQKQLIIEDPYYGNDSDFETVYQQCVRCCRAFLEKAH

[9] = NIH3T3 cell viability loss – ATP luminescence, mouse fibroblasts, counter-screen, dose response (AID 2010); type: functional, cell-based;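 further: cells exposed to compound for about 90 hours before reading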
[10] = target: T1, Low molecular weight phosphotyrosine protein phosphatase; type: functional; settings: read-out: IC50_Mean; remark: listed apart in the source
[11] = target: Genome polyprotein (dengue virus type 2, UniProt P29990); experiment: flavivirus cap methylation enzyme inhibition – biochemical, confirmation dose response, primary screen (AID 588689); type: functional
Genome polyprotein, sequence (P29990 2492-3391 limits assumed): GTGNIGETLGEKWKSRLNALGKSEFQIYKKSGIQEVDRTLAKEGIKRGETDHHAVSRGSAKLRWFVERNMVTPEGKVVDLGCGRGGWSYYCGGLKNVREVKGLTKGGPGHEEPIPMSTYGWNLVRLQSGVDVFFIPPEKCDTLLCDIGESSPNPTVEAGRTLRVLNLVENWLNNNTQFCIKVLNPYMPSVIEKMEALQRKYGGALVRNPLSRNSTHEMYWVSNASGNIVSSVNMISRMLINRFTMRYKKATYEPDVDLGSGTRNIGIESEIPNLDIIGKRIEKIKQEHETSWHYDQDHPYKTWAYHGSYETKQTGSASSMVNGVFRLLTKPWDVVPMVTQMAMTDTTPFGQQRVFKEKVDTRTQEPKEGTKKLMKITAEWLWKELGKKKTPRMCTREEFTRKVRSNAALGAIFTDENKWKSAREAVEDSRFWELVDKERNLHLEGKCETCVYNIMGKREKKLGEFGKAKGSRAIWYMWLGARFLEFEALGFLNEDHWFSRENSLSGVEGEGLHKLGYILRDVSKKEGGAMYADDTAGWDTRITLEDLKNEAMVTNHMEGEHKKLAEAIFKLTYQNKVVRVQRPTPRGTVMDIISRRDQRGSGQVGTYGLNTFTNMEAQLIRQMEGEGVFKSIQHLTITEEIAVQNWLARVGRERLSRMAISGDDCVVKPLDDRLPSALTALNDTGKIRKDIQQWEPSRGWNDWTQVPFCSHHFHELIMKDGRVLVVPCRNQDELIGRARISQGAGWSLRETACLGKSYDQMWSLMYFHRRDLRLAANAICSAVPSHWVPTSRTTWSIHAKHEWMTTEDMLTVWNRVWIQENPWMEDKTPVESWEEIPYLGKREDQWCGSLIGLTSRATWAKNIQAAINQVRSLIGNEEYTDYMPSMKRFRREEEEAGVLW

[12] = target: T2, Small ubiquitin-related modifier 1 (Homo sapiens, UniProt P63165); experiment: SUMO1 protein-protein binding blockers, potency – biochemical, FRET, dose response (AID 624383); type: functional; settings: read-out: IC50_Mean
T2 sequence (P63165 whole entry): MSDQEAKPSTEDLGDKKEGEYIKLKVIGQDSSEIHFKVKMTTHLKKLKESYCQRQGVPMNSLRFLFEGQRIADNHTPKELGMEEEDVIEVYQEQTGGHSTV

[13] = target: T2, Small ubiquitin-related modifier 1; experiment: SUMO1 protein interaction blockers, potency – biochemical, fluorescence polarization, uHTS hits, dose response (AID 624382); type: functional; settings: read-out: IC50_Mean
[14] = target: T3, Rac GTPase-activating protein 1 (Homo sapiens, UniProt Q9H0H5); experiment: blockers of MgcRacGAP-driven Rac1 GTP hydrolysis – biochemical, ADP Hunter fluorescence, primary and confirmatory, confirmation (AID 624330); type: functional
T3 sequence (Q9H0H5 whole entry): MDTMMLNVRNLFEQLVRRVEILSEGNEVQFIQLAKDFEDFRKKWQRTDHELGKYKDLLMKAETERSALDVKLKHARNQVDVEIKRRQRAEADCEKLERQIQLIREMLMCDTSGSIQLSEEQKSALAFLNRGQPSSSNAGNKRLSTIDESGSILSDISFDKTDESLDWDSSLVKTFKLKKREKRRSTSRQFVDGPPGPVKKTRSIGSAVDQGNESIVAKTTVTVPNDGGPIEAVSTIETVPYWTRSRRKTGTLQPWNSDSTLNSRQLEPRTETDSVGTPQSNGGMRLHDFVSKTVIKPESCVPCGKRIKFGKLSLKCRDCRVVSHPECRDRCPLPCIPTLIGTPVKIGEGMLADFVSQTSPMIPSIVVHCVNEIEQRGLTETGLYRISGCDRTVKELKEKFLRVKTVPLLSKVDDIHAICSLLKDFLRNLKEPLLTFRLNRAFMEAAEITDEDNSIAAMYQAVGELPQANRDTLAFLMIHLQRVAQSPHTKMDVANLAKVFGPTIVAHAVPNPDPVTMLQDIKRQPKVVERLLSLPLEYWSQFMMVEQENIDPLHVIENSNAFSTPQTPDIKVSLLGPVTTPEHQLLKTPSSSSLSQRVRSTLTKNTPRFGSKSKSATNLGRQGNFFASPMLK

[15] = viability loss in CEM21 cells – cell-based, CellTiter-Glo luminescence, cherry-picked, cytotoxicity control for viral fusion inhibitor project, dose response (AID 652042); type: functional;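 further: potency for signal decrease meaning cytotoxicity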
[16] = test system: Streptococcus sp. 'group A'; experiment: Streptococcus pyogenes SK(-)GAS viability under kanamycin – luminescence, BacTiterGlo, confirmation, counter-screen for streptokinase expression inhibitor project, dose response (AID 1900); type: functional, organism-based
[17] = test system: Streptococcus; experiment: GAS UMAA2166 growth inhibition – luminescence, BacTiterGlo, counter-screen for streptokinase expression inhibitor project, dose response (AID 1915); type: functional, organism-based;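 further: potency for reduction of bacterial viability or growth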
[18] = test system: INS1; experiment: INS-1E survival protection against cytokine death – cell-based, luminescence, retest, dose response (AID 449756); type: functional; settings: Rattus norvegicus;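 further: cell death triggered by IL-1 beta plus TNF-alpha plus IFN-gamma mixture; protective hits raise ATP signal compared with cytokine alone wells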
[19] = target: Nuclear receptor subfamily 5 group A member 2 (Homo sapiens, UniProt O00482); type: functional, cell-based;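 further: HEK293T cells transfected with LRH-1 and a StAR promoter luciferase reporter; potency for inhibitors that lower LRH-1 driven reporter light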
Nuclear receptor subfamily 5 group A member 2, sequence (O00482 whole entry): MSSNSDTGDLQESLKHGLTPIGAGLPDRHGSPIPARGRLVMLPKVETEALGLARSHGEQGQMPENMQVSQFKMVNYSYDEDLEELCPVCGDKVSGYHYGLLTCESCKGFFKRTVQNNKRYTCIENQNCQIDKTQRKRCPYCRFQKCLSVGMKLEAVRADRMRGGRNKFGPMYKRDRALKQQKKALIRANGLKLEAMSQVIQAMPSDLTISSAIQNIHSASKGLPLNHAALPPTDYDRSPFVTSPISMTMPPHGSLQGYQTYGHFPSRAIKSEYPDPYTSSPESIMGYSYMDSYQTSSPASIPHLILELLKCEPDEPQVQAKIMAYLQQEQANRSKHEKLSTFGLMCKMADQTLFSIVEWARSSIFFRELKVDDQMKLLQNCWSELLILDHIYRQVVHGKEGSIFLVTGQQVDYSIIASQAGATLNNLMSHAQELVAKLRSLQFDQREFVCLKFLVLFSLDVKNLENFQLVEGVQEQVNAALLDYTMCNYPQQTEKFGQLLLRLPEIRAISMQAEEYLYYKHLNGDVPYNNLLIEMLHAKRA

[20] = target: Steroidogenic factor 1 (Homo sapiens, UniProt Q13285); experiment: Counterscreen for inverse agonists of the liver receptor homolog-1 (LRH-1; NR5A2): Luminescence-based cell-based high throughput dose response assay to identify inverse agonists of the Steroidogenic Factor 1 Nuclear Receptor (SF1; NR5A1).; type: functional
Steroidogenic factor 1, sequence (Q13285 whole entry): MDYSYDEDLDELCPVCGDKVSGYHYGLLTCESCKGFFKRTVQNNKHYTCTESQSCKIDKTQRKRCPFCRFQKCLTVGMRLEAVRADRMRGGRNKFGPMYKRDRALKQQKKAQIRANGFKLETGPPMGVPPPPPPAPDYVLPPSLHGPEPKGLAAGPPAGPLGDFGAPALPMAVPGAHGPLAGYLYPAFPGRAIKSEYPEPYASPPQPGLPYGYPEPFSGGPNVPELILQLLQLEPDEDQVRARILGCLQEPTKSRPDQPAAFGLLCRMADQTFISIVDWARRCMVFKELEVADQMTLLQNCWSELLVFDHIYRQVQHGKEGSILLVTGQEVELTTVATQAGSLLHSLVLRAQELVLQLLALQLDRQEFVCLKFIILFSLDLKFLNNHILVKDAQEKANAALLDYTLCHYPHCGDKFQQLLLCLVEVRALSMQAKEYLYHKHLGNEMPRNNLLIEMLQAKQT

[21] = nonselective StAR promoter luciferase inhibitors – cell-based, luminescence, luciferase reporter, counter-screen for LRH-1 inverse agonist project, dose response (AID 651969); type: functional
[22] = cells; type: functional, cell-based
[23] = target: T4, Trace amine-associated receptor 1 (Homo sapiens, UniProt Q96RJ0); experiment: Counterscreen for agonists of the human trace amine associated receptor 1 (hTAAR1): Fluorescence-based cell-based high throughput dose response assay to identify hTAAR1 agonist that also desensitize TAAR1 receptor response.; type: functional
T4 sequence (Q96RJ0 whole entry): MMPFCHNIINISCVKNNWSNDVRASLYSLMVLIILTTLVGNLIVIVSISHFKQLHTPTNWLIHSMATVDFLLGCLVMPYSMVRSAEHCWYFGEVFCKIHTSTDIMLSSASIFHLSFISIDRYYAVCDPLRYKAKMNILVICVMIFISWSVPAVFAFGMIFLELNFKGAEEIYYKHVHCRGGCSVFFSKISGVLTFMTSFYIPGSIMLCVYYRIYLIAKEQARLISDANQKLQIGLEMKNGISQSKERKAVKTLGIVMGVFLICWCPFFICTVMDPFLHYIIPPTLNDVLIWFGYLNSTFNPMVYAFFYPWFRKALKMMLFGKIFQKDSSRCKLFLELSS

[24] = target: T4, Trace amine-associated receptor 1; experiment: Fluorescence-based cell-based high throughput dose response assay to identify agonists of the human trace amine associated receptor 1 (TAAR1).; type: functional
[25] = cells; type: functional, cell-based; remark: listed apart in the source
[26] = target: T5, Methionyl-tRNA synthetase, putative (Trypanosoma brucei brucei, UniProt Q38C91); type: functional, Trypanosoma brucei brucei strain 927/4 GUTat10.1
T5 sequence (Q38C91 whole entry): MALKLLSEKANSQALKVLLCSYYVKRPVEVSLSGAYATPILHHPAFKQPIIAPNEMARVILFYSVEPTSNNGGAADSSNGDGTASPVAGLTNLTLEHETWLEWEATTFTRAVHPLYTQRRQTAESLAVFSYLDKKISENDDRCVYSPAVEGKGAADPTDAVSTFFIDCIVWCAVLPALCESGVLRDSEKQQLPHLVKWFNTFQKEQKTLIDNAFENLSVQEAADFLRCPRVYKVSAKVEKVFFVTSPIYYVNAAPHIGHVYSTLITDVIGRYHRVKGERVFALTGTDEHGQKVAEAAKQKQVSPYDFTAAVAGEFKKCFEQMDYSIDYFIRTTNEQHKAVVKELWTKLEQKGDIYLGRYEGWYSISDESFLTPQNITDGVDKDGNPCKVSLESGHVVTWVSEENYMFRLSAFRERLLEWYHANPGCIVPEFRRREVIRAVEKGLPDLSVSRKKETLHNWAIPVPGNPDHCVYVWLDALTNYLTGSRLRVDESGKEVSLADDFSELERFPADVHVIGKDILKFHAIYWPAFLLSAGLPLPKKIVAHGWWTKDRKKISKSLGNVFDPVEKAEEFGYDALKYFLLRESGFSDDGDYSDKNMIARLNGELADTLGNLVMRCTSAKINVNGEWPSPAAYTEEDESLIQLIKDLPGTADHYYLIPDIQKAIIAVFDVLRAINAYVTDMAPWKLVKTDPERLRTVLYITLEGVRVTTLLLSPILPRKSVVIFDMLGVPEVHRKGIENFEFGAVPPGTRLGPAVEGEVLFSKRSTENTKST

[27] = cells
[28] = Counterscreen for inhibitors of Trypanosoma brucei methionyl tRNA synthetase (MetRS): Luminescence-based cell-based high throughput dose response assay to identify compounds that are cytotoxic to Jurkat human T lymphocyte cells.; type: functional
[29] = target: T5, Methionyl-tRNA synthetase, putative; type: functional, Trypanosoma brucei brucei strain 927/4 GUTat10.1; remark: listed apart in the source
[30] = target: T6, Beta-2 adrenergic receptor (Homo sapiens, UniProt P07550); experiment: Dose response for HTS for Beta-2AR agonists via FAP method from Powderset3.; type: functional
T6 sequence (P07550 whole entry): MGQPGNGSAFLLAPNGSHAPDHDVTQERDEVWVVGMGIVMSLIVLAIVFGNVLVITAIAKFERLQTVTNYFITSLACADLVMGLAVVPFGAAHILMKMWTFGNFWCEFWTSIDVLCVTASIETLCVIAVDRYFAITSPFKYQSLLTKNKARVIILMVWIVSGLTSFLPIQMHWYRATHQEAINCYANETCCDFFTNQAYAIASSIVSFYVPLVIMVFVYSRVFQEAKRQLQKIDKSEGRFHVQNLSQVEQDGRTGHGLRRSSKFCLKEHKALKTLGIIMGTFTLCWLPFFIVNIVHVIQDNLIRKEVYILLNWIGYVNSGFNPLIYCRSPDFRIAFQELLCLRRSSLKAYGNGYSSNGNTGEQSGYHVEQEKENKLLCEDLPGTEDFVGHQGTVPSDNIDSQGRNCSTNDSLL

[31] = target: T6, Beta-2 adrenergic receptor; experiment: ADRB2 activation measured by internalization – cell-based, FAP fluorogen, flow cytometry, cherry pick 1, dose response (AID 588763); type: functional
[32] = viability loss in human Jurkat cells – cell-based, luminescence, cytotoxicity control for P. falciparum gametocyte viability project, dose response (AID 1117277); type: functional;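 further: potency reflects loss of cellular ATP meaning fewer viable cells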
[33] = target: T7, Streptokinase A (Streptococcus pyogenes serotype M1, UniProt P10520); experiment: viability-normalized secreted streptokinase activity reduction – plasminogen activation absorbance, OD405, dose response (AID 1914); type: functional, Streptococcus pyogenes M1 GAS;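 further: secreted streptokinase activity via plasminogen activation per viability signal from cell pellet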
T7 sequence (P10520 whole entry): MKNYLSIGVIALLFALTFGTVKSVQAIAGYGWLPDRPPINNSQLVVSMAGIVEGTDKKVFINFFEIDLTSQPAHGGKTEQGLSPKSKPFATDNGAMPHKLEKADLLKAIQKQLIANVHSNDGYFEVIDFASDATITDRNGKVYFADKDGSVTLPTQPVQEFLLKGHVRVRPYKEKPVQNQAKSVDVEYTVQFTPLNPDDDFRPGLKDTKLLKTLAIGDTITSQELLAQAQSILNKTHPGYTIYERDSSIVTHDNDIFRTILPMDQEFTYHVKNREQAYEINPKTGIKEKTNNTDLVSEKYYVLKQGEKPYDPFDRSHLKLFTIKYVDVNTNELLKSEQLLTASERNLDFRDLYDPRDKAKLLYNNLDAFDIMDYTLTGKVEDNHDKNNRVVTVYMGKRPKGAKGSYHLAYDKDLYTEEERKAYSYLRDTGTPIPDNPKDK

[34] = viability inhibitors of stage V gametocytes – luminescence, dose response (AID 1117278); type: functional, cell-based;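 further: gametocytes exposed to compound for 24 hours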
[35] = viability of uninfected HEp-2 cells – cell-based, HTS, cytotoxicity control for RSV inhibitor project, dose response (AID 2410); type: functional; settings: human respiratory syncytial virus
[36] = target: Arf-GAP with SH3 domain, ANK repeat and PH domain-containing protein 1 (Homo sapiens, UniProt Q9ULH1); type: functional;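 further: biochemical fluorescence polarization dose–response screen measuring inhibition of ASAP1; ASAP1 GAP domain stimulating GTP hydrolysis by truncated human ARF1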
Arf-GAP with SH3 domain, ANK repeat and PH domain-containing protein 1, sequence (Q9ULH1 whole entry, the tested form may be a part): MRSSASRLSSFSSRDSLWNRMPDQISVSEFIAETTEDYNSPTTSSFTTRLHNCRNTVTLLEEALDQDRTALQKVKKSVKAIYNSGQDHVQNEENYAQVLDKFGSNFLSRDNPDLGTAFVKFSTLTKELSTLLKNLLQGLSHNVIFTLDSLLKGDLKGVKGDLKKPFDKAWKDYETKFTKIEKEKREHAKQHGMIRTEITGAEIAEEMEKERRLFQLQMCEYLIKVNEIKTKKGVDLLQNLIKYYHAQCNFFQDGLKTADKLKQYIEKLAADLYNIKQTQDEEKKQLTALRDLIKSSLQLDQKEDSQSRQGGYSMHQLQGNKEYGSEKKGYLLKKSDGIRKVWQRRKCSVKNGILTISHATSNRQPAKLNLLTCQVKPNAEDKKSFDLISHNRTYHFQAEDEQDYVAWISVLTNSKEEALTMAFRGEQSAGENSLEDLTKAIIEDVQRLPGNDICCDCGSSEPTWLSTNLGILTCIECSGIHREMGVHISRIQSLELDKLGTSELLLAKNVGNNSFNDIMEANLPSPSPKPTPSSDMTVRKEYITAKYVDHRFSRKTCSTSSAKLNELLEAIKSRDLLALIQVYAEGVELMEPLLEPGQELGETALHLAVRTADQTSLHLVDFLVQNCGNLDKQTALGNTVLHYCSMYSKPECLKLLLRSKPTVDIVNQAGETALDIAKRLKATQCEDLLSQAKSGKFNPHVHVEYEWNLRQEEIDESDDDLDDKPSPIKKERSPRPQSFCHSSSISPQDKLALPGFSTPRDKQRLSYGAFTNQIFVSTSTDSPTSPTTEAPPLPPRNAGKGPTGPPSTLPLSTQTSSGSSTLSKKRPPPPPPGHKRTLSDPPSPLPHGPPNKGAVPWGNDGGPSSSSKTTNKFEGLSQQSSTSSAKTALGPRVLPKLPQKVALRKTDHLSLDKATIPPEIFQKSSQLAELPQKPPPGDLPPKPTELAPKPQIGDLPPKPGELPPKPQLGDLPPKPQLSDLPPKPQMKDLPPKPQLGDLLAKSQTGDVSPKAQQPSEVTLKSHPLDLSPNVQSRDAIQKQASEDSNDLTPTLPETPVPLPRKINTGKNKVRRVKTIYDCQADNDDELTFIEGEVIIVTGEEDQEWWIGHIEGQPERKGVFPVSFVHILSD

O=C1CCCCC1Sc1nnc(-c2ccc3c(c2)OCO3)o1 (centres undefined)
AC50 [1]: 2.73 µM (active) | AC50 [2]: 12.3 µM (active) | AC50 [3]: 6.84 µM (active) | AC50 [4]: 41.9 µM (active) | AC50 [5]: 0.841 µM (active)

O=C(c1cccc(Cl)c1)N1CCC2(CC1)NCCc1[nH]cnc12
AC50 [6]: 34 µM (active)

Cc1cc(C)c2c(N)c(C(=O)c3ccc(Cl)c(Cl)c3)sc2n1
EC50 [7]: 0.166 µM (active) | IC50 [8]: 14.2 µM (active) | EC50 [9]: > 60 µM (not active) | IC50 [10]: 4.5 µM (active)

COc1ccccc1Nc1ccc2c(O)cc(S(=O)(=O)O)cc2c1
IC50 [11]: 60.5 µM (active) | IC50 [12]: 3.41 µM (active) | IC50 [13]: > 66.6 µM (inactive) | IC50 [14]: 90.4 µM (active)

CCCCCCn1c(=O)c(C(=O)Nc2ncccc2C)c(O)c2ccccc21
AC50 [15]: 28.6 µM (active) | AC50 [1]: 5.24 µM (active) | AC50 [2]: 5.77 µM (active) | EC50 [16]: 0.566 µM (active) | AC50 [3]: 4.02 µM (active) | EC50 [17]: 1.98 µM (active) | AC50 [18]: 7.92 µM (active) | AC50 [4]: 3.78 µM (active)

Cc1nn(CC(=O)Nc2ccc3c(c2)OCCO3)c(C)c1[N+](=O)[O-]
IC50 [19]: 14.3 µM (inactive) | IC50 [20]: 3.1 µM (active) | IC50 [21]: 35.9 µM (inactive)

c1ccc(CC2=NCCN2)cc1 [TOLAZOLINE HYDROCHLORIDE]
EC50 [22]: > 29.9 µM (inactive) | IC50 [23]: 4.74 µM (active) | EC50 [24]: 1.01 µM (active) | IC50 [25]: > 29.9 µM (inactive)

OC(COc1ccc2cc(Br)ccc2c1)Cn1ccnc1 (centres undefined)
IC50 [26]: 94.1 µM (inactive) | EC50 [27]: 0.126 µM (active) | IC50 [28]: 83.3 µM (inactive) | EC50 [7]: < 0.1 µM (active) | EC50 [9]: > 60 µM (not active) | IC50 [29]: 28.2 µM (inactive)

NC(=O)C1CCN(C(=O)COc2ccc3c4c(c(=O)oc3c2)CCCC4)CC1
IC50 [19]: 3.98 µM (active) | IC50 [20]: 4.4 µM (active) | IC50 [21]: 35.9 µM (inactive)

CC(Oc1ccc(Cl)cc1Cl)c1nc(-c2ccc(NC(=O)c3ccco3)cc2)no1 (centres undefined)
EC50 [16]: 21.7 µM (active) | EC50 [30]: 0.204 µM (active) | EC50 [17]: 25.7 µM (active) | EC50 [31]: 7.06 µM (active) | IC50 [32]: > 83.3 µM (inactive) | EC50 [33]: > 150 µM (not active) | IC50 [34]: > 109 µM (inactive) | CC50 [35]: 20.2 µM (active)

COC(=O)c1cccc(Nc2nc(-c3ccncc3)nc3ccccc23)c1
IC50 [36]: 10.5 µM (inactive) | IC50 [12]: 4.11 µM (active) | IC50 [13]: > 66.6 µM (inactive)
